Experimental data as given in publication PMC12648656, “Palladium(II) Complexes with Noncovalent Interactions with DNA: Solution Speciation Controlled by Solvent Identity, pH, and Concentration” (Inorganic Chemistry, 2025).

Legend:
[1] = Spectrophotometric (UV-vis) pH titrations for proton dissociation constants; assay type: physicochemical; conditions: 60% (v/v) DMSO/H2O
Method: Spectrophotometric titrations were applied to study the equilibrium processes (proton dissociation and complex dissociation/formation) in DMSO/H2O mixtures due to the limited aqueous solubility of the compounds. The calibration of the electrode system was performed by strong acid–strong base pH-potentiometric titrations in 30% (v/v) and 60% (v/v) DMSO/H2O solvent mixtures at 25.0 ± 0.1 °C as described in our previous works. , KCl (0.1 M) was the supporting electrolyte to maintain constant ionic strength, which refers to the chloride ion concentration in blood plasma. […] The initial sample volume was 5 mL. Spectrophotometric titrations were performed in the pH range 1.8–12.5 for 30% (v/v) DMSO/H2O medium and 1.8–14.0 for 60% (v/v) DMSO/H2O medium. Prior to the titrations, purified argon was passed through the samples for approximately 10 min to remove CO2 traces, and argon was also passed over the samples during these measurements. The proton dissociation constants were calculated by using the computer program PSEQUAD.

[2] = tested on: pBR322 plasmid DNA; test: Agarose gel electrophoresis mobility shift; assay type: binding; conditions: r i 0.01 to 0.20, 24 h, 37 °C
Method: Complexes (2) and (3) were incubated at 37 °C with a concentration of 0.0625 μg/μL pBR322 plasmid DNA at different concentrations expressed as r i = complex:DNA (base pair) ratio. The r i used was from 0.01 to 0.20, in a total volume of 20 μL. After an incubation period of 24 h, the mobility of the complex-treated pBR322 samples was analyzed by gel electrophoresis at 70 V in Tris/acetate/EDTA buffer. A control of pBR322 was also incubated, and a 1 kb ladder aliquot was loaded into lane 1 of the gel. The gel was stained with an ethidium bromide aqueous solution, and DNA bands were visualized with a UV-transilluminator UVITEC Cambridge UVIDOC HD2 instrument. The studies were performed with 3% (v/v) DMSO as the final solution.

[3] = Stability and DMSO coordination in DMSO by 1H NMR; assay type: physicochemical
Method: (a) Complex (2) solutions in DMSO (D2O) investigated by NMR spectroscopy: Trying to investigate if the higher concentration is responsible for the complex transformation process in DMSO, we monitored the solution of complex (2) at 0.5 and 1 mM by ^1H NMR spectroscopy (Figure a). We could clearly see that complex (2) is only detected pure at a concentration of 0.5 mM.
NMR spectra were recorded at room temperature, using a two-channel 300 MHz Bruker Avance III-HD Nanobay spectrometer equipped with a 5 mm BBO 1H/X probe and Z gradients, located at the Interdepartmental Investigation Service (SIdI). DMSO-d 6 was used as the solvent (containing 0.05% (v/v) tetramethylsilane (TMS) as a reference). Chemical shift values are given in parts per million relative to the residual TMS signals. The following abbreviations were used: s (singlet), d (doublet), and m (multiplet). Elemental analyses were performed on a LECO CHNS-932 elemental analyzer located at SIdI. Mass spectra were recorded using FAB (fast atom bombardment) in a Waters VG AutoSpec mass spectrometry unit and using MALDI (matrix-assisted laser desorption/ionization) with a Bruker Ultraflex III (MALDI-TOF/TOF) mass spectrometry unit, both located at SIdI. Infrared (IR) spectra were recorded using a PerkinElmer Model 283 spectrometer with an attenuated total reflectance (ATR) MIRacle Single Reflection Horizontal accessory and equipped with CsI optical windows for spectra between 600 and 200 cm^–1 in Nujol mull preparations. Absorbance spectra were recorded using a Thermo Evolution 220 spectrophotometer to record the UV–visible region, equipped with temperature control within ±0.1 °C. Viscosity measurements were performed using an A&D SV-1A vibro viscometer. HPLC analyses were carried out utilizing a 1200 Infinity series HPLC system provided by Agilent Technologies coupled to a photodiode array detector.

[4] = HPLC analysis of aqueous solution integrity; assay type: physicochemical; conditions: 20 μM in 3% DMSO aqueous solution, after 24 h, 254 nm
Method: Prior to the injection to the column, 20 μL was taken and diluted with 180 μL of HPLC-grade acetonitrile at various time points (t = 0 and 24 h). 20 μL of this diluted sample was injected in the Zorbax Eclipse Plus C18 column (4.6 × 100 mm, 3.5 μm): flow rate, 1 mL/min; detection, UV 254 nm; flow solvent system A/B (acetonitrile/water, v/v): 70:30 and analyzed with 254 nm radiation up to 10 min.

[5] = n-Octanol/water and n-octanol/Tris buffer shake-flask partitioning; assay type: physicochemical
Method: The distribution coefficient values (D 7.4) of the compounds were determined by the traditional shake-flask method in n-octanol/buffered aqueous solution at pH 7.40 for 5 mM Tris HCl with 0.1 M KCl and at pH 7.4 at 25.0 ± 0.2 °C. The ligand and complexes were dissolved in n-octanol (presaturated by the aqueous buffer) because of the very low aqueous solubility. The aqueous buffer solution and n-octanol ratio was 1:1 due to the expected high lipophilicity of the compounds. First, samples were mixed with vertical rotation (∼20 rpm) for 3 h, and then the two phases were separated by centrifugation at 3000 rpm (∼1000g) for 3 min. After separation, UV–vis spectra of the compounds were recorded in both phases. Spectra of the n-octanol phases were compared to those of the original n-octanol stock solutions.
The distribution coefficient values were also determined using unbuffered water and octanol (also presaturated) with a ratio of 1:1.

[6] = molecular target: T1, hen egg white lysozyme (HEWL) (Gallus gallus, UniProt P00698); test: Reaction with lysozyme followed by UV-vis at 280 nm, pseudo-first-order kinetics; assay type: binding; conditions: metal:protein 3:1, 5 mM Tris/3% DMSO, 37 °C, absorbance at 280 nm
T1 construct: a model protein, namely HEWL (hen egg white lysozyme), was also studied; from tissue; host or cells: hen egg white (from the protein's name)
Method: The interaction of complexes (2) and (3) with hen egg white lysozyme (HEWL) was investigated using a 10^–5 M solution of the protein. Lysozyme is a widely used model protein for studying the binding of potential metallodrugs. The sample preparation for this assay was carried out using the same protocol of the samples for the DNA interactions studies by UV–vis spectrophotometry. The integrity of the enzyme was checked in each experiment, with a comparison of fresh and incubated samples. UV–vis spectra were recorded before and after incubation with the complex (dissolved in 97% 5 mM Tris/3% DMSO) for 24 h at 37 °C. A metal to protein ratio of 3:1 was used for these studies, a ratio that affords similar results to 10:1 and eases the sample preparation. The experimental time-dependent profiles of the spectra were analyzed as pseudo-first-order reactions by plotting the variation of the absorbance as a function of time.

T1 sequence (P00698 19-147): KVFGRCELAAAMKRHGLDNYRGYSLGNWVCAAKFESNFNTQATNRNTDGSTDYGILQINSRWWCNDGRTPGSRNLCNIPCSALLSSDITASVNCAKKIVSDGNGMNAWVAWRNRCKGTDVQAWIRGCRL

Molecule Clc1ccc(N=C2N[N+](=Cc3c[nH]cn3)[Pd-2]3([S]C(Nc4ccc(Cl)cc4)=N[N+]3=Cc3c[nH]cn3)[S]2)cc1 (stereo not shown) [(2), Bis(1H-imidazole-4-carboxaldehyde-4N-p-chlorophenylthiosemicarbazonato)palladium(II)] has a pKa1 ([1]; I = 0.10 M (KCl), 25.0 °C) of 2.97 ± 0.02, a pKa2 ([1]; I = 0.10 M (KCl), 25.0 °C) of 8.40 ± 0.02 and a pKa3 ([1]; I = 0.10 M (KCl), 25.0 °C) of 11.31 ± 0.01. The “reduction of proton dissociation constant of step I compared to the ligand” value ([1]; same medium) was 0.8 logarithm units, the “reduction of proton dissociation constant of step II compared to the ligand” value ([1]; same medium) was 2.7 logarithm units and the “effect on electrophoretic mobility of supercoiled pBR322 (pure form)” value [2] was “small unwinding”. The “molar fraction of DMSO-coordinated species (complex (3)) formed” value ([3]; 0.5 mM) was 0%, the “molar fraction of DMSO-coordinated species (complex (3)) formed” value ([3]; 3 mM, does not increase over 24 h) was 8% and the “time 1H NMR spectrum remains stable” value ([3]; in DMSO) was “up to 24 h”. The “integral of the HPLC signal of intact complex” value [4] was “only slightly diminished”, the “log D o/t” value ([5]; n-octanol/5 mM Tris HCl with 0.1 M KCl, pH 7.40, 25.0 °C) was “+2.32 ± 0.16” and the “log D o/w” value ([5]; n-octanol/pure (unbuffered) water, 1:1) was “+1.70 ± 0.06”. For the same molecule, the “observed rate constant k obs” value [6] was “(8.83 ± 0.05) × 10^–5 s^–1”.
